Measurements as given in patent US20140018380A1, “BICYCLIC HETEROARYL COMPOUNDS AS GPR119 RECEPTOR AGONISTS” (CENTAURUS BIOPHARMA CO., LTD., priority 2011, published 2014).

What follows are molecules tested against T1, human GPR119 (Homo sapiens, UniProt Q8TDV5) (assay: cAMP assay (HTRF) with human GPR119 stable transfected CHO cells). Settings: functional agonist activity; intracellular cAMP (HTRF) in human GPR119 stable transfected CHO cells, 30 min at 37° C.
T1 construct: host or cells: CHO cells (American Type Culture Collection)
T1 sequence (Q8TDV5 1-335): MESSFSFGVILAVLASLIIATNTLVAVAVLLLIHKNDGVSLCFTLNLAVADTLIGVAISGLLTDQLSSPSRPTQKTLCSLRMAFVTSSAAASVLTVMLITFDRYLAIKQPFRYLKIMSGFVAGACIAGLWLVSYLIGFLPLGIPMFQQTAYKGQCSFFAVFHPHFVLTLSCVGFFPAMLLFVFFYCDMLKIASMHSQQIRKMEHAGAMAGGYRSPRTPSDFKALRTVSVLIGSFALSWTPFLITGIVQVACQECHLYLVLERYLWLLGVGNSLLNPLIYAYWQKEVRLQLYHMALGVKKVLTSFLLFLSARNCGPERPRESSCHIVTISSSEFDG
Assay type: cell-based
Protocol: Testing of Compounds of the Invention In Vitro (cAMP Assay)
The functional agonist activities of compounds of the invention were characterized using a cAMP assay with human GPR119 stable transfected Chinese hamster ovary (CHO) cells (American Type Culture Collection, Manassas Va., USA). CHO cells were stable transfected with GPR119/pcDNA3.0 (SC307189, Origene). Transfected cells were then selected and maintained in culture media containing […] geneticin. Stable clones were obtained by limiting dilution and the expression of human-GPR119 in CHO cells was confirmed by HTRF (Homogeneous Time-Resolved Fluorescence) cAMP assay. The clones generating the best agonist stimulated signal window were selected for the cAMP assay development.
The cells were cultured in Dulbecco's Modified Eagle Medium (Invitrogen Corporation, Carlsbad, Calif., USA) containing 10% Fetal bovine serum, 1% Pen/Strep and […] G418 and grown in 75 cm2 tissue culture flasks until they reached 75-80% confluence.
The cells were harvested 16 hours prior to assay with 1 ml 0.05% Trypsine, washed with PBS and then plated into 96-well plates (8000 cells/well) containing DMEM medium and 10% BSA. Prior to assay, the cells were washed with assay stimulation buffer (HBSS containing 10 mM IBMX, 20 mM HEPES, 0.1% BSA) twice. Then cells were incubated for 30 min at 37° C. in the absence or presence of varying concentrations of agonists (i.e., the compounds of the present invention) in assay stimulating buffer with 0.1% DMSO. The intracellular levels of cAMP generated in the GPR119 transfected CHO cells were measured using the HTRF kit (CisBio, FR.). In brief, 20 ul d2-labeled cAMP and 20 ul cryptated labeled anti-cAMP antibody were added into 40 ul cells treated with agonist and the plates were incubated for 1 hour at room temperature in the dark. Cells were then transferred into white 96-well plate and the signal generated was measured using Envision (Perkin-Elmer, Norwalk, Conn.). EC50 values were calculated using the GraphPad Prism 5 program.

SMILES | EC50 [nM]
CCc1cnc(N2CCC(n3ccc4cc(-c5ccc(S(C)(=O)=O)cc5)ccc43)CC2)nc1 [Example 1, 1-(1-(5-ethylpyrimidin-2-yl)piperidin-4-yl)-5-(4-(methylsulfonyl)phenyl)-1H-indole] | < 300
CCc1cnc(N2CCC(n3nnc4cc(-c5ccc(-n6cnnn6)cc5)cnc43)CC2)nc1 [Example 2, 6-(4-(1H-tetrazol-1-yl)phenyl)-3-(1-(5-ethylpyrimidin-2-yl)piperidin-4-yl)-3H-[1,2,3]triazol o[4,5-b]pyridine] | < 500
CCc1cnc(N2CCC(n3ccc4cc(-c5ccc(-n6cnnn6)cc5)ccc43)CC2)nc1 [Example 3, 5-(4-(1H-tetrazol-1-yl)phenyl)-1-(1-(5-ethylpyrimidin-2-yl)piperidin-4-yl)-1H-indole] | < 300
CCc1cnc(N2CCC(n3cc(C)c4cc(-c5ccc(S(C)(=O)=O)cc5)ccc43)CC2)nc1 [Example 5, 1-(1-(5-ethylpyrimidin-2-yl)piperidin-4-yl)-3-methyl-5-(4-(methylsulfone)phenyl)-1H-indole] | < 1000
CCc1cnc(N2CCC(n3ccc4cc(-c5ccc(S(C)(=O)=O)cc5)c(F)cc43)CC2)nc1 [Example 6, 1-(1-(5-ethylpyrimidin-2-yl)piperidin-4-yl)-6-fluoro-5-(4-(methylsulfony)phenyl)-1H-indole] | < 100
CC(C)(C)OC(=O)N1CCC(n2ccc3cc(-c4ccc(S(C)(=O)=O)cc4)c(F)cc32)CC1 [Example 7, tert-butyl 4-(6-fluoro-5-(4-(methylsulfonyl)phenyl)-1H-indol-1-yl)piperidine-1-carboxylate] | < 100
CCc1cnc(N2CCC(n3cc(Cl)c4cc(-c5ccc(S(C)(=O)=O)cc5)ccc43)CC2)nc1 [Example 8, 3-chloro-1-(1-(5-ethylpyrimidin-2-yl)piperidin-4-yl)-5-(4-(methylsulfonl)phenyl)-1H-indole] | < 500
CCc1cnc(N2CCC(n3ccc4cc(-c5ccc(S(C)(=O)=O)cc5)ncc43)CC2)nc1 [Example 9, 1-(1-(5-ethylpyrimidin-2-yl)piperidin-4-yl)-5-(4-(methylsulfonyl)phenyl)-1H-pyrrolo[2,3-c]pyridine] | < 200
CC(C)(C)OC(=O)N1CCC(n2ccc3cc(-c4ccc(S(C)(=O)=O)cc4)ccc32)CC1 [Example 10, tert-butyl 4-(5-(4-(methylsulfonyl)phenyl)-1H-indol-1-yl)piperidine-1-carboxylate] | < 200
CCc1cnc(N2CCC(n3ccc4cc(-c5ccc(S(C)(=O)=O)cc5F)ccc43)CC2)nc1 [Example 11, 1-(1-(5-ethylpyrimidin-2-yl)piperidin-4-yl)-5-(2-fluoro-4-(methylsulfony)phenyl)-1H-indole] | < 500
CCc1cnc(N2CCC(n3ccc4cc(-c5ccc(-n6cnnn6)cc5)c(F)cc43)CC2)nc1 [Example 12, 5-(4-(1H-tetrazol-1-yl)phenyl)-1-(1-(5-ethylpyrimidin-2-yl)piperidin-4-yl)-6-fluoro-1H-indole] | < 2000
CCc1cnc(N2CCC(n3ccc4cc(-c5ccc(C#N)c(F)c5)c(F)cc43)CC2)nc1 [Example 13, 4-(1-(1-(5-ethylpyrimidin-2-yl)piperidin-4-yl)-6-fluoro-1H-indol-5-yl)-2-fluorobenzonitrile] | < 500
CCc1cnc(N2CCC(n3ccc4cc(-c5ccc(C#N)cc5)c(F)cc43)CC2)nc1 [Example 14, 4-(1-(1-(5-ethylpyrimidin-2-yl)piperidin-4-yl)-6-fluoro-1H-indol-5-yl)benzonitrile] | < 500
CCc1cnc(N2CCC(n3ccc4cc(-c5ccc(NS(C)(=O)=O)cc5)c(F)cc43)CC2)nc1 [Example 15, N-(4-(1-(1-(5-ethylpyrimidin-2-yl)piperidin-4-yl)-6-fluoro-1H-indol-5-yl)phenyl)methanesulfonamide] | < 1000
CC(C)(C)OC(=O)N1CCC(n2ncc3cc(-c4ccc(S(C)(=O)=O)cc4)ccc32)CC1 [Example 16, tert-butyl 4-(5-(4-(methylsulfonyl)phenyl)-1H-indazol-1-yl)piperidine-1-carboxylate] | < 300
CCc1cnc(N2CCC(n3ncc4cc(-c5ccc(-n6cnnn6)cc5)c(F)cc43)CC2)nc1 [Example 17, 5-(4-(1H-tetrazol-1-yl)phenyl)-1-(1-(5-ethylpyrimidin-2-yl)piperidin-4-yl)-6-fluoro-1H-indazole] | < 50
CCc1cnc(N2CCC(n3ncc4cc(-c5ccc(S(C)(=O)=O)cc5)c(F)cc43)CC2)nc1 [Example 18, 1-(1-(5-ethylpyrimidin-2-yl)piperidin-4-yl)-6-fluoro-5-(4-(methylsulfonyl)phenyl)-1H-indazole] | < 200
CC(C)c1noc(N2CCC(n3ccc4cc(-c5ccc(S(C)(=O)=O)cc5)c(F)cc43)CC2)n1 [Example 19, 5-(4-(6-fluoro-5-(4-(methylsulfonyl)phenyl)-1H-indol-1-yl)piperidin-1-yl)-3-isopropyl-1,2,4-oxadiazole] | < 100
